In PMC11356571, “The Comparative Metabolism of a Novel Hepatocellular Carcinoma Therapeutic Agent, 2,3-Diamino-N-(4-(benzo[d]thiazol-2-yl)phenyl)propanamide, in Human and Animal Hepatocytes” (Metabolites, 2024):

Target: T1, human NAT1 (Homo sapiens, UniProt P18440)
T1 construct: purchased Corning Life Sciences (Woburn, MA, USA)
T1 sequence (P18440 1-290): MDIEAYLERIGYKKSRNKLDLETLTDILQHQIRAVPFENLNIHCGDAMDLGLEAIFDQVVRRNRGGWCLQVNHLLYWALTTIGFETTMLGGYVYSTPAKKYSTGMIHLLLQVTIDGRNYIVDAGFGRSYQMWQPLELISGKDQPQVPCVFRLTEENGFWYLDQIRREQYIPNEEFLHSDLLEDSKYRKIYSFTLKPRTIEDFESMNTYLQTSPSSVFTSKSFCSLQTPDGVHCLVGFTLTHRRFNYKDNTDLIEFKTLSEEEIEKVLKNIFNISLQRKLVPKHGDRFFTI
Test: Incubation with cDNA-expressed human NAT1
Format: in vitro ADME
Conditions: cDNA-expressed human NAT1, 60 min at 37 °C, concentration of 0.1 μM
Method: Additionally, M1 was incubated with cDNA-expressed human NAT1 isozyme to confirm the involvement of the NAT1 isozyme in the N-acetylation of M1. This was carried out by monitoring the remaining percentage of M1 and the formation of M2 in a concentration-dependent manner. A 225 μL reaction mixture containing cDNA-expressed human NAT1 at 1 μg/mL, and 1 μM M1 (final concentration: 0.1 and 1 μM) in 0.05 M potassium phosphate buffer was pre-warmed for 5 min. The reaction was initiated by adding 25 μL of acetyl-CoA regenerating system to the incubates. The acetyl-CoA regenerating system consisted of 0.1 mM acetyl-CoA, 4.5 mM acetyl-DL-carnitine, and 2.0 unit/mL carnitine acetyltransferase as final concentrations. The samples were incubated in triplicate for 0 min or 60 min at 37 °C. The reactions were stopped by adding 250 μL of ice-cold acetonitrile containing the IS (camptothecin, 500 ng/mL). Samples were centrifuged at 13,000 rpm for 5 min at 4 °C. An aliquot of 2 μL supernatant was injected in LC-MS/MS system.
For enzyme characterization, an Agilent 6460 triple quadrupole mass spectrometer coupled with a 1260 HPLC system (Agilent Technologies, Santa Clara, CA, USA) and a Kinetex Halo® C18 column (2.7 μm, 2.1 × 50 mm, Advanced Material Technology, Wilmington, DE, USA) were used for chromatographic separation. […] ETN101, M1, and M2 were detected via MRM using ESI in the positive mode. […]

## Nc1ccc(-c2nc3ccccc3s2)cc1 [M1, 2-(4-aminophenyl)benzothiazole]
  Percentage remaining of M1: 90.3%
